Experimental data published in ChEMBL document CHEMBL5120865, “Exploration of 6-methyl-7-(Hetero)Aryl-7-Deazapurine ribonucleosides as antileishmanial agents” (Eur J Med Chem, 2022).
Several values for one entry are separate records, joined by “and”; a condition that tells them apart may be missing. Equal values may be shown once.

Assays:
[1] = AUC (0 to 24) in golden hamster infected with Leishmania infantum MHOM/MA(BE)/67 amastigotes at 50 mg/kg, po SID and measured after 10 days by LC-MS/MS analysis; assay type: ADME, organism-based, Mesocricetus auratus; design: dose 50 mg/kg, time 10 day, route po; details: in vivo
[2] = Metabolic stability in golden hamster liver microsomes S9 fraction assessed as UGT-mediated metabolism by measuring parent compound remaining measured after 30 mins in presence of NADPH; assay type: ADME, subcellular, Mesocricetus auratus; details: read-out: Stability
[3] = Metabolic stability in golden hamster liver microsomes S9 fraction assessed as CYP450-mediated metabolism by measuring parent compound remaining measured after 60 mins in presence of NADPH; assay type: ADME, subcellular, Mesocricetus auratus; details: read-out: Stability
Leishmania infantum [4] = assay: Antileishmanial activity against sodium stibogluconate, potassium antimonyl tartrate and PMM resistant intracellular Leishmania infantum MHOM/FR/96/LEM3323-CI4 PMM promastigotes infected in Swiss mouse peritoneal macrophages assessed as inhibition of parasite growth measured after 96 hrs by microscopic analysis; assay type: functional, organism-based; details: Peritoneal macrophage
[5] = Metabolic stability in mouse liver microsomes S9 fraction assessed as CYP450-mediated metabolism by measuring parent compound remaining measured after 60 mins in presence of NADPH; assay type: ADME, subcellular; details: read-out: Stability
Leishmania infantum [6] = assay: Antileishmanial activity against sodium stibogluconate, potassium antimonyl tartrate and MIL resistant intracellular Leishmania infantum MHOM/FR/96/LEM3323-CI4 MIL5C13 promastigotes infected in Swiss mouse peritoneal macrophages assessed as inhibition of parasite growth measured after 96 hrs by microscopic analysis; assay type: functional, organism-based; details: MHOM/FR/96/LEM3323-CI4 MIL5C13, Peritoneal macrophage
Cytochrome P450 [7] = biological target: T1, Cytochrome P450 (Homo sapiens, UniProt P04798+P05177+P05181+P08684+P10632+P10635+P11509+P11712+P13584+P20813+P20815+P20853+P24462+P24903+P33260+P33261+P51589+P78329+P98187+Q02928+Q08477+Q16678+Q16696+Q5TCH4+Q6VVX0+Q7Z449+Q8TAV3+Q96SQ9+Q9HB55); assay: Metabolic stability in human liver microsomes S9 fraction assessed as CYP450-mediated metabolism by measuring parent compound remaining measured after 60 mins in presence of NADPH; assay type: ADME, subcellular; details: read-out: Stability
[8] = Metabolic stability in mouse liver microsomes S9 fraction assessed as UGT-mediated metabolism by measuring parent compound remaining measured after 15 mins in presence of NADPH; assay type: ADME, subcellular; details: read-out: Stability
[9] = Selectivity index, ratio of CC50 for cytotoxicity against human MRC5 cells to EC50 for Trypanosoma cruzi Tulahuen CL2 amastigotes expressing beta galactosidase infected in human MRC5 cells; assay type: toxicity, cell-based; details: read-out: Ratio CC50/EC50
[10] = Cytotoxicity against Swiss mouse peritoneal macrophages assessed as reduction in cell viability measured after 5 days by microscopic analysis; assay type: toxicity, cell-based, Peritoneal macrophage; details: time 5 day
[11] = AUC (0 to 8) in golden hamster infected with Leishmania infantum MHOM/MA(BE)/67 amastigotes at 50 mg/kg, po SID and measured after 24 hrs by LC-MS/MS analysis; assay type: ADME, organism-based, Mesocricetus auratus; design: dose 50 mg/kg, time 24 hrs, route po; details: in vivo
[12] = Metabolic stability in golden hamster liver microsomes S9 fraction assessed as UGT-mediated metabolism by measuring parent compound remaining measured after 60 mins in presence of NADPH; assay type: ADME, subcellular, Mesocricetus auratus; details: read-out: Stability
Leishmania infantum [13] = assay: Antileishmanial activity against intracellular Leishmania infantum MHOM/MA(BE)/67 amastigotes infected in golden hamster assessed as reduction of amastigote burdens in liver at 50 mg/kg, po SID for 10 days by geimsa staining based microscopic analysis; assay type: functional; design: scale not given: the % may be the effect or the level left; details: time 10 day
[14] = Metabolic stability in golden hamster liver microsomes S9 fraction assessed as CYP450-mediated metabolism by measuring parent compound remaining measured after 30 mins in presence of NADPH; assay type: ADME, subcellular, Mesocricetus auratus; details: read-out: Stability
[15] = Volume of distribution in golden hamster infected with Leishmania infantum MHOM/MA(BE)/67 amastigotes at 50 mg/kg, po SID and measured after 24 hrs by LC-MS/MS analysis; assay type: ADME, organism-based, Mesocricetus auratus; details: in vivo
[16] = Metabolic stability in mouse liver microsomes S9 fraction assessed as CYP450-mediated metabolism by measuring parent compound remaining measured after 30 mins in presence of NADPH; assay type: ADME, subcellular; details: read-out: Stability
Leishmania infantum [17] = assay: Antileishmanial activity against intracellular Leishmania infantum MHOM/MA(BE)/67 amastigotes infected in golden hamster assessed as reduction of amastigote burdens in bone marrow at 50 mg/kg, po SID for 10 days by geimsa staining based microscopic analysis; assay type: functional; design: scale not given: the % may be the effect or the level left; details: time 10 day
[18] = Metabolic stability in mouse liver microsomes S9 fraction assessed as UGT-mediated metabolism by measuring parent compound remaining measured after 60 mins in presence of NADPH; assay type: ADME, subcellular; details: read-out: Stability
Cytochrome P450 [19] = biological target: T1, Cytochrome P450; assay: Metabolic stability in human liver microsomes S9 fraction assessed as CYP450-mediated metabolism by measuring parent compound remaining measured after 30 mins in presence of NADPH; assay type: ADME, subcellular; details: read-out: Stability
[20] = biological target: UDP-glucuronosyltransferases (UGTs) (Homo sapiens, UniProt O60656+O75310+O75795+P06133+P0DTE4+P0DTE5+P16662+P19224+P22309+P22310+P35503+P35504+P36537+P54855+Q6UWM9+Q9BY64+Q9HAW7+Q9HAW8+Q9HAW9); assay: Metabolic stability in human liver microsomes S9 fraction assessed as UGT-mediated metabolism by measuring parent compound remaining measured after 60 mins in presence of NADPH; assay type: ADME, subcellular; details: read-out: Stability
[21] = Cmax in golden hamster infected with Leishmania infantum MHOM/MA(BE)/67 amastigotes at 50 mg/kg, po SID and measured after 24 hrs by LC-MS/MS analysis; assay type: ADME, organism-based, Mesocricetus auratus; design: time 24 hrs, dose 50 mg/kg, route po; details: in vivo
[22] = Volume of distribution in golden hamster infected with Leishmania infantum MHOM/MA(BE)/67 amastigotes at 50 mg/kg, po SID and measured after 10 days by LC-MS/MS analysis; assay type: ADME, organism-based, Mesocricetus auratus; details: in vivo, 240 h, time 10 day
Trypanosoma cruzi = assay: Antitrypanosomal activity against nifurtimox-sensitive Tulahuen CL2 amastigotes expressing beta galactosidase infected in human MRC5 cells assessed as inhibition of parasite growth using chlorophenol red beta-D-galactopyranoside as substrate and measured after 7 days by spectrophotometric analysis; assay type: functional, organism-based; details: Tulahuen CL2, MRC5, 168 h, read-out: EC50
[23] = Cmax in golden hamster infected with Leishmania infantum MHOM/MA(BE)/67 amastigotes at 50 mg/kg, po SID and measured after 10 days by LC-MS/MS analysis; assay type: ADME, organism-based, Mesocricetus auratus; design: dose 50 mg/kg, time 10 day, route po; details: in vivo
[24] = Metabolic stability in mouse liver microsomes S9 fraction assessed as UGT-mediated metabolism by measuring parent compound remaining measured after 30 mins in presence of NADPH; assay type: ADME, subcellular; details: read-out: Stability
[25] = Metabolic stability in mouse liver microsomes S9 fraction assessed as CYP450-mediated metabolism by measuring parent compound remaining measured after 15 mins in presence of NADPH; assay type: ADME, subcellular; details: read-out: Stability
[26] = Tmax in golden hamster infected with Leishmania infantum MHOM/MA(BE)/67 amastigotes at 50 mg/kg, po SID and measured after 10 days by LC-MS/MS analysis; assay type: ADME, organism-based, Mesocricetus auratus; details: in vivo, time 10 day
Leishmania infantum [27] = assay: Antileishmanial activity against intracellular Leishmania infantum MHOM/MA(BE)/67 amastigotes infected in golden hamster assessed as reduction of amastigote burdens in spleen at 50 mg/kg, po SID for 10 days by geimsa staining based microscopic analysis; assay type: functional; design: scale not given: the % may be the effect or the level left; details: time 10 day
[28] = Cytotoxicity against human MRC5 cells assessed as reduction in cell viability incubated for 3 days by resazurin dye based fluorescence analysis; assay type: toxicity; details: time 3 day

## Cc1ncnc2c1c(-c1cc(Cl)ccn1)cn2[C@@H]1O[C@H](CO)[C@@H](O)[C@H]1O
[1]
  AUC at 240 h: 3380 ng·h/mL
[2]
  remaining at 0.5 h: 92%
[3]
  remaining at 1 h: 87%
Leishmania infantum [4]
  EC50: 790 nM
[5]
  remaining at 1 h: 94%
Leishmania infantum [6]
  EC50: 730 nM
Cytochrome P450 [7]
  remaining at 1 h: 75%
[8]
  remaining at 0.25 h: 103%
[9]
  selectivity ratio: > 77
[10]
  CC50 at 120 h: > 64 µM
[11]
  AUC at 24 h: 1660 ng·h/mL
[12]
  remaining at 1 h: 89%
Leishmania infantum [13]
  Activity: 52.7%
[14]
  remaining at 0.5 h: 95%
[15]
  Vd: 13 L/kg
[16]
  remaining at 0.5 h: 86%
Leishmania infantum [17]
  Activity: 30.8%
[18]
  remaining at 1 h: 100%
Cytochrome P450 [19]
  remaining at 0.5 h: 86%
[20]
  remaining at 1 h: 98%
[21]
  Cmax: 1100 ng/mL and 2.9 µM
[22]
  Vd: 5.14 L/kg
Trypanosoma cruzi
  EC50: 830 nM
[23]
  Cmax: 1210 ng/mL and 3.2 µM
[24]
  remaining at 0.5 h: 102%
[25]
  remaining at 0.25 h: 109%
[26]
  Tmax: 30 min
Leishmania infantum [27]
  Activity: -1.8%
[28]
  CC50 at 72 h: > 64 µM
